Laboratory results published in PubChem BioAssay AID1259407 (Chemical Carcinogenesis Research Information System (CCRIS), 2018).
Activity calls are given as the source filed them. How the calls were made is not given here.

System: CCRIS mutagenicity, Ames/micronucleus/aberration tests
Assay: CCRIS mutagenicity studies
[1] = Test System: AMES SALMONELLA TYPHIMURIUM, Strain/Indicator: TA98, Metabolic Activation: NONE, Method: STANDARD PLATE
[2] = Test System: AMES SALMONELLA TYPHIMURIUM, Strain/Indicator: TA100, Metabolic Activation: NONE, Method: STANDARD PLATE
[3] = Test System: AMES SALMONELLA TYPHIMURIUM, Strain/Indicator: TA100, Metabolic Activation: RAT, LIVER, S-9, AROCLOR 1254, Method: STANDARD PLATE
[4] = Test System: AMES SALMONELLA TYPHIMURIUM, Strain/Indicator: TA1538, Metabolic Activation: NONE, Method: STANDARD PLATE
[5] = Test System: AMES SALMONELLA TYPHIMURIUM, Strain/Indicator: TA1538, Metabolic Activation: RAT, LIVER, S-9, AROCLOR 1254, Method: STANDARD PLATE
[6] = Test System: MOUSE LYMPHOMA, Strain/Indicator: L5178Y (TK+/TK-), Metabolic Activation: NONE, Method: SUSPENSION/PLATE
[7] = Test System: MOUSE LYMPHOMA, Strain/Indicator: L5178Y (TK+/TK-), Metabolic Activation: RAT, LIVER, S-9, AROCLOR 1254, Method: SUSPENSION/PLATE

Measured: mutagenic call

CCOCCc1c(-c2ccccc2)nc(N)n2ncnc12
inactive: [1] inactive; negative | Test System: AMES SALMONELLA TYPHIMURIUM, Strain/Indicator: TA98, Metabolic Activation: RAT, LIVER, S-9, AROCLOR 1254, Method: STANDARD PLATE inactive; negative | [2] inactive; negative | [3] inactive; negative | Test System: AMES SALMONELLA TYPHIMURIUM, Strain/Indicator: TA1535, Metabolic Activation: NONE, Method: STANDARD PLATE inactive; negative | Test System: AMES SALMONELLA TYPHIMURIUM, Strain/Indicator: TA1535, Metabolic Activation: RAT, LIVER, S-9, AROCLOR 1254, Method: STANDARD PLATE inactive; negative | Test System: AMES SALMONELLA TYPHIMURIUM, Strain/Indicator: TA1537, Metabolic Activation: NONE, Method: STANDARD PLATE inactive; negative | Test System: AMES SALMONELLA TYPHIMURIUM, Strain/Indicator: TA1537, Metabolic Activation: RAT, LIVER, S-9, AROCLOR 1254, Method: STANDARD PLATE inactive; negative | [4] inactive; negative | [5] inactive; negative | Test System: CHINESE HAMSTER OVARY, Strain/Indicator: CHO-K1-BH4 (HGPRT)/6-THIOGUANINE, Metabolic Activation: NONE inactive; negative | Test System: CHINESE HAMSTER OVARY, Strain/Indicator: CHO-K1-BH4 (HGPRT)/6-THIOGUANINE, Metabolic Activation: RAT, LIVER, S-9, AROCLOR 1254 inactive; negative | [6] inactive; negative | [7] inactive; negative | Test System: UDS RAT PRIMARY HEPATOCYTES, Strain/Indicator: THY INCORP, Metabolic Activation: NONE, Method: AUTORADIOGRAPHY inactive; negative

CC(C)CCOS(C)(=O)=O
active: End Point: IN VITRO MICRONUCLEUS, Test System: MOUSE LYMPHOMA L5178Y CELLS, Metabolic Activation: NONE active; positive | [2] active; positive | Test System: AMES SALMONELLA TYPHIMURIUM, Strain/Indicator: TA100, Metabolic Activation: RAT, LIVER, S-9, Method: STANDARD PLATE active; positive
inactive: End Point: IN VITRO MICRONUCLEUS, Test System: MOUSE LYMPHOMA L5178Y CELLS, Metabolic Activation: RAT, LIVER, S-9 inactive; negative

c1ccc2cc3c(ccc4ccccc43)cc2c1
inactive: [1] inactive; negative | [2] inactive; negative | Test System: AMES SALMONELLA TYPHIMURIUM, Strain/Indicator: TA100, Metabolic Activation: RAT, LIVER, S-9, PHENOBARBITAL, Method: STANDARD PLATE inactive; negative | [4] inactive; negative | [5] inactive; negative | Test System: E. COLI, Strain/Indicator: WP2 UVRA, Metabolic Activation: HAMSTER, LIVER, S-9, AROCLOR 1254, Method: STANDARD PLATE inactive; negative | Test System: E. COLI, Strain/Indicator: WP2 UVRA, Metabolic Activation: HAMSTER, LIVER, S-9, Method: STANDARD PLATE inactive; negative | Test System: E. COLI, Strain/Indicator: WP2 UVRA, Metabolic Activation: MOUSE, LIVER, S-9, AROCLOR 1254, Method: STANDARD PLATE inactive; negative | Test System: E. COLI, Strain/Indicator: WP2 UVRA, Metabolic Activation: MOUSE, LIVER, S-9, Method: STANDARD PLATE inactive; negative | Test System: E. COLI, Strain/Indicator: WP2 UVRA, Metabolic Activation: NONE, Method: STANDARD PLATE inactive; negative | Test System: E. COLI, Strain/Indicator: WP2 UVRA, Metabolic Activation: RAT, LIVER, S-9, AROCLOR 1254, Method: STANDARD PLATE inactive; negative | Test System: E. COLI, Strain/Indicator: WP2 UVRA, Metabolic Activation: RAT, LIVER, S-9, Method: STANDARD PLATE inactive; negative
active: Test System: AMES SALMONELLA TYPHIMURIUM, Strain/Indicator: TA98, Method: STANDARD PLATE active; positive | Test System: AMES SALMONELLA TYPHIMURIUM, Strain/Indicator: TA100, Metabolic Activation: RAT, INTACT HEPATOCYTES, AROCLOR 1254, Method: PREINCUBATION active; positive | Test System: AMES SALMONELLA TYPHIMURIUM, Strain/Indicator: TA100, Metabolic Activation: RAT, LIVER, S-9, 3-METHYLCHOLANTHRENE, Method: STANDARD PLATE active; positive | [3] active; positive | Test System: AMES SALMONELLA TYPHIMURIUM, Strain/Indicator: TA100, Metabolic Activation: RAT, NADPH-FORTIFIED HOMOGENIZED HEPATOCYTES, AROCLOR 1254, Method: PREINCUBATION active; positive | Test System: AMES SALMONELLA TYPHIMURIUM, Strain/Indicator: TA100, Metabolic Activation: RAT, SONICATED HEPATOCYTES, AROCLOR 1254, Method: PREINCUBATION active; positive | Test System: AMES SALMONELLA TYPHIMURIUM, Strain/Indicator: TA100, Method: STANDARD PLATE active; positive | Test System: AMES SALMONELLA TYPHIMURIUM, Strain/Indicator: TA1537, Metabolic Activation: MOUSE, LIVER, S-9, Method: STANDARD PLATE active; positive | Test System: AMES SALMONELLA TYPHIMURIUM, Strain/Indicator: TA1538, Metabolic Activation: RAT, LIVER, S-9, PHENOBARBITAL, Method: STANDARD PLATE active; positive | Test System: CHINESE HAMSTER V-79, Strain/Indicator: V-79/6-THIOGUANINE, Metabolic Activation: RAT, LIVER, S-9, PHENOBARBITAL, Method: STANDARD PLATE active; positive | Test System: CHINESE HAMSTER V-79, Strain/Indicator: V-79/OUABAIN, Metabolic Activation: CELL-MEDIATED, Method: STANDARD PLATE active; positive | [6] active; positive | [7] active; positive | Test System: MOUSE LYMPHOMA, Strain/Indicator: L5178Y (TK+/TK-), Metabolic Activation: RAT, LIVER, S-9, Method: SUSPENSION/PLATE active; positive

FCC1CO1 (stereo unspecified)
active: Test System: AMES SALMONELLA TYPHIMURIUM, Strain/Indicator: TA100, Metabolic Activation: HAMSTER, LIVER, S-9, AROCLOR 1254 (30%), Method: PREINCUBATION active; positive | Test System: AMES SALMONELLA TYPHIMURIUM, Strain/Indicator: TA100, Metabolic Activation: NONE, Method: PREINCUBATION active; positive | Test System: AMES SALMONELLA TYPHIMURIUM, Strain/Indicator: TA100, Metabolic Activation: RAT, LIVER, S-9, AROCLOR 1254 (30%), Method: PREINCUBATION active; positive
inactive: Test System: AMES SALMONELLA TYPHIMURIUM, Strain/Indicator: TA98, Metabolic Activation: HAMSTER, LIVER, S-9, AROCLOR 1254 (30%), Method: PREINCUBATION inactive; negative | Test System: AMES SALMONELLA TYPHIMURIUM, Strain/Indicator: TA98, Metabolic Activation: NONE, Method: PREINCUBATION inactive; negative | Test System: AMES SALMONELLA TYPHIMURIUM, Strain/Indicator: TA98, Metabolic Activation: RAT, LIVER, S-9, AROCLOR 1254 (30%), Method: PREINCUBATION inactive; negative
